Results reported in patent US20150133460A1 (Millennium Phamaceuticals, Inc., priority 2013, published 2015).

Assay: Equilibrium aqueous solubility
Format: physicochemical
Details: physiologically relevant pH's

Compound	solubility in water
COc1cc2c(N3CCN(C(=O)Nc4ccc(OC(C)C)cc4)CC3)ncnc2cc1OCCCN1CCCCC1.C[C@H](O)C(=O)O [Form 4, 4-[6-methoxy-7-(3-piperidin-1-yl-propoxy)quinazolin-4-yl]piperazine-1-carboxylic acid(4-isopropoxyphenyl)-amide (L)-lactate (I) Form 4]	greater than 325 mg/mL
COc1cc2c(N3CCN(C(=O)Nc4ccc(OC(C)C)cc4)CC3)ncnc2cc1OCCCN1CCCCC1.C[C@H](O)C(=O)O [Form 1, 4-[6-methoxy-7-(3-piperidin-1-yl-propoxy)quinazolin-4-yl]piperazine-1-carboxylic acid(4-isopropoxyphenyl)-amide (L)-lactate (I) Form 1]	greater than 450 mg/mL
